Active and inactive are the calls of the source. The rule behind the calls is not given here.
Tests used:
[1] = target: Transcriptional activator Myb (Homo sapiens, UniProt P10242); test: Inhibition of c-Myb (unknown origin) expressed in HEK293T cells measured after 16 hrs by steady-glo luciferase reporter gene assay; assay type: cell-based
[2] = Hydrolytic stability of compound in DMSO-d6/D2O measured after 7 days by 1H-NMR analysis; assay type: physicochemical; details: 168 h; time 7 day
Tubulin (Homo sapiens) [3] = target: T1, Tubulin (Homo sapiens) (UniProt P68371+Q9H4B7+P0DPH7+P68366+Q13509+Q71U36+P04350+Q3ZCM7+P07437+P68363+Q9BQE3+Q6PEY2+Q13885+Q9BVA1+Q9BUF5); test: Induction of microtubule fragmentation in human 518A2 cells assessed as appearance of area with transverse arcs at 25 nM measured after 24 hrs by immunofluorescence assay; assay type: cell-based
Tubulin (Homo sapiens) [4] = target: T1, Tubulin (Homo sapiens); test: Induction of microtubule fragmentation in human 518A2 cells at 25 nM measured after 24 hrs by immunofluorescence assay; assay type: cell-based
HeLa = test: Cytotoxicity against human HeLa cells assessed as reduction in cell viability measured after 72 hrs by MTT assay; assay type: functional, cell-based
HCT-116 [5] = test: Cytotoxicity against p53-deficient human HCT-116 cells assessed as reduction in cell viability measured after 72 hrs by MTT assay; assay type: functional, cell-based; details: HCT-116, 72 h
[6] = Cytotoxicity against human EA.hy 926 cells assessed as reduction in cell viability measured after 72 hrs by MTT assay; assay type: toxicity, cell-based
518A2 [7] = test: Cell cycle arrest in human […] cells assessed as increase in accumulation at G2/M phase at 25 nM measured after 6 to 24 hrs by propidium iodide staining based FACS analysis; assay type: functional; details: time 6-24 hrs
Tubulin (Homo sapiens) [8] = target: T1, Tubulin (Homo sapiens); test: Induction of microtubule fragmentation in human 518A2 cells assessed as appearance of area with dorsal stress fibre at 25 nM measured after 24 hrs by immunofluorescence assay; assay type: cell-based
HT-29 = test: Cytotoxicity against human HT-29 cells assessed as reduction in cell viability measured after 72 hrs by MTT assay; assay type: functional, cell-based; details: HT-29, 72 h
MCF7 = test: Cytotoxicity against human MCF7 cells assessed as reduction in cell viability measured after 72 hrs by MTT assay; assay type: functional, cell-based; details: MCF7, 72 h
518A2 [9] = test: Cell cycle arrest in human […] cells assessed as increase in accumulation at sub-G1 phase at 25 nM measured after 6 to 24 hrs by propidium iodide staining based FACS analysis; assay type: functional; details: time 6-24 hrs
518A2 [10] = test: Cytotoxicity against human 518A2 cells assessed as reduction in cell viability measured after 72 hrs by MTT assay; assay type: functional, cell-based; details: 518A2, 72 h
[11] = Effect on angiogenic activity in human EA.hy 926 cells assessed as reduction in vessel like 2D structure at 25 nM measured after 5 hrs by light microscopy; assay type: toxicity, cell-based; details: ea.hy 926, 5 h, 0.025 µM
[12] = Cytotoxicity against HDFa cells assessed as reduction in cell viability at 0.0005 to 100 uM measured after 72 hrs by MTT assay; assay type: toxicity, cell-based; details: human, dose 0.0005-100 µM
[13] = target: T2, Caspase-3/Caspase-7 (Homo sapiens) (UniProt P42574+P55210); test: Activation of caspase-3/7 activity in human 518A2 cells at 25 nM preincubated for 24 hrs followed by caspase-3/7 fluorogenic substrate addition and measured after 60 mins by fluorescence assay; assay type: cell-based; details: filed as activator, time 25.0 hrs
[14] = Effect on angiogenic activity in 24 hrs post-fertilized fil1/EGFP transgenic zebrafish embryo assessed as subintestinal vessel area at 100 nM measured after 48 hrs by fluorescence microscopy (reference value: 100%); assay type: toxicity, Danio rerio; details: 0.1 µM
KB-V1 [15] = test: Cytotoxicity against human multidrug-resistant KB-V1 cells assessed as reduction in cell viability measured after 72 hrs in presence of verapamil by MTT assay; assay type: functional, cell-based; details: KB-V1, 72 h
HCT-116 [16] = test: Cytotoxicity against human HCT-116 cells assessed as reduction in cell viability measured after 72 hrs by MTT assay; assay type: functional, cell-based; details: HCT-116, 72 h
KB-V1 [17] = test: Cytotoxicity against human multidrug-resistant KB-V1 cells assessed as reduction in cell viability measured after 72 hrs by MTT assay; assay type: functional, cell-based; details: KB-V1, 72 h
Sus scrofa = organism: Sus scrofa; test: Inhibition of porcine brain tubulin polymerization at 5 uM measured at 10 mins interval for 100 mins by turbidimetric assay; assay type: tissue-based
[18] = Cytotoxicity against human U-87 cells assessed as reduction in cell viability measured after 72 hrs by MTT assay; assay type: functional, cell-based, U-87MG ATCC; details: U-87 MG
[19] = target: T2, Caspase-3/Caspase-7 (Homo sapiens); test: Activation of caspase-3/7 activity in human 518A2 cells at 1 uM preincubated for 6 hrs followed by caspase-3/7 fluorogenic substrate addition and measured after 60 mins by fluorescence assay; assay type: cell-based; details: filed as activator, time 7.0 hrs

T2 sequence (P42574 whole entry, looked up): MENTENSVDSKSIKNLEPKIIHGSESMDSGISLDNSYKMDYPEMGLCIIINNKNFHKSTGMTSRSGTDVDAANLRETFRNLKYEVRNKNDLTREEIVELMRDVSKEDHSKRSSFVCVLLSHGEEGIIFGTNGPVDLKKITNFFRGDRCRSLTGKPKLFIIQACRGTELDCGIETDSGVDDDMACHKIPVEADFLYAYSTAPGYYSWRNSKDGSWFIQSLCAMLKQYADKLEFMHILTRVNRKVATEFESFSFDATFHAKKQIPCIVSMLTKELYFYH
T2 sequence (P55210 whole entry, looked up): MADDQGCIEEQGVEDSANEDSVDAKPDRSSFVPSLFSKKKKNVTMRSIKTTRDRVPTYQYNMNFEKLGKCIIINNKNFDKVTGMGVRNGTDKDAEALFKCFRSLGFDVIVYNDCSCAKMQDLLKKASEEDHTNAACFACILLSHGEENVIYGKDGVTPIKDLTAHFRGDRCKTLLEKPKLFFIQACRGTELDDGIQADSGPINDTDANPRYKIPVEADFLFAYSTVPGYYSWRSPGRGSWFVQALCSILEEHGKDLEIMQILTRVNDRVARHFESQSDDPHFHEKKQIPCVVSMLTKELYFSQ
Transcriptional activator Myb, sequence (P10242 whole entry): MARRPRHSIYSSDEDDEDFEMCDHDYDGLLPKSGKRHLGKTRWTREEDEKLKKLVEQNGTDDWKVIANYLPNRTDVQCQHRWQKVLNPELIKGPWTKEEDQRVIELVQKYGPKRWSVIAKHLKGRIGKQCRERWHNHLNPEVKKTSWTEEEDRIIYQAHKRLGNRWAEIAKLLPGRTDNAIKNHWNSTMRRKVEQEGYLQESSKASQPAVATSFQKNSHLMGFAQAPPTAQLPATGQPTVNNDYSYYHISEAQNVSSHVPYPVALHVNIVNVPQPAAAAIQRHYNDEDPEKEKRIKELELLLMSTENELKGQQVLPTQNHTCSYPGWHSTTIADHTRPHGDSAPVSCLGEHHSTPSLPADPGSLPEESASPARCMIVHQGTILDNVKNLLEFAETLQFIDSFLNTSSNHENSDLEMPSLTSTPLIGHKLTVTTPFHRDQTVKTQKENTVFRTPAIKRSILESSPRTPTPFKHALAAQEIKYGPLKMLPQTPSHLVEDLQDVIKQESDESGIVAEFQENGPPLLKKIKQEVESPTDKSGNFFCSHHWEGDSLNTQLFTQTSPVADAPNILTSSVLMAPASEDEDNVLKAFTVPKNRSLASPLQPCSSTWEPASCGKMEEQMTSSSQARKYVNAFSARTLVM

N#CC1=C(N)Oc2c(ccc3ccccc23)C1c1ccc(Cl)c(F)c1 (configuration not stated)
IC50 [1]: 16 nM

COc1ccc(C2C(C#N)=C(N)Oc3c2ccc2ccccc32)cc1OC (configuration not stated)
IC50 [1]: 40 nM

COc1cc(C2C(C#N)=C(N)Oc3c2ccc2ccccc32)cc(OC)c1OC (configuration not stated)
Stability [2]: Stable
Activity (Tubulin (Homo sapiens) [3]): Active
Activity (Tubulin (Homo sapiens) [4]): Active
IC50 (HeLa): 11.3 nM
IC50 (HCT-116 [5]): 27.6 nM
IC50 at 72 h [6]: 19.9 nM
Activity (518A2 [7]): Active
Activity (Tubulin (Homo sapiens) [8]): Active
IC50 (HT-29): 324 nM
IC50 (MCF7): 34.1 nM
Activity (518A2 [9]): Active
IC50 (518A2 [10]): 28.8 nM
Activity [11]: Toxic
Activity [12]: Toxic
Activity [13]: Active
Activity [14]: 81.4%
IC50 [1]: 9.1 nM
IC50 (KB-V1 [15]): 8.8 nM
IC50 (HCT-116 [16]): 22.2 nM
IC50 (KB-V1 [17]): 26.4 nM
inhibition (Sus scrofa): Active
IC50 [18]: 5.2 nM

CCOc1c(OC)cc(C2C(C#N)=C(N)Oc3c2ccc2ccccc32)cc1OC (configuration not stated)
Activity (Tubulin (Homo sapiens) [3]): Active
Activity (Tubulin (Homo sapiens) [4]): Active
IC50 (HeLa): 21.9 nM
IC50 (HCT-116 [5]): 13.1 nM
IC50 at 72 h [6]: 6.2 nM
Activity (518A2 [7]): Active
Activity (Tubulin (Homo sapiens) [8]): Active
IC50 (HT-29): 269 nM
IC50 (MCF7): 28.1 nM
Activity (518A2 [9]): Active
IC50 (518A2 [10]): 25 nM
Activity [12]: Toxic
Activity [13]: Active
Activity [14]: 78.1%
IC50 [1]: 14 nM
IC50 (KB-V1 [15]): 16.5 nM
IC50 (HCT-116 [16]): 22.7 nM
IC50 (KB-V1 [17]): 20.9 nM
inhibition (Sus scrofa): Active
IC50 [18]: 10.6 nM

COc1ccc(C2C(C#N)=C(N)Oc3c2ccc2ccccc32)cc1Br (configuration not stated)
IC50 [1]: 420 nM

N#CC1=C(N)Oc2c(ccc3ccccc23)C1c1cccc(S(F)(F)(F)(F)F)c1 (configuration not stated)
IC50 [1]: 130 nM

N#CC1=C(N)Oc2c(ccc3ccccc23)C1c1ccc(S(F)(F)(F)(F)F)cc1 (configuration not stated)
IC50 [1]: 3200 nM

COc1ccc(/C=C\c2cc(OC)c(OC)c(OC)c2)cc1O [COMBRETASTATIN A4]
Stability [2]: Unstable
Activity (Tubulin (Homo sapiens) [3]): Active
Activity (Tubulin (Homo sapiens) [4]): Active
Activity (518A2 [7]): Active
Activity (Tubulin (Homo sapiens) [8]): Active
inhibition (Sus scrofa): Active

CCOc1c(I)cc(C2C(C#N)=C(N)Oc3c2ccc2ccccc32)cc1OC (configuration not stated)
IC50 [1]: 50 nM

CN[C@@H]1C[C@H]2O[C@@](C)([C@@H]1OC)n1c3ccccc3c3c4c(c5c6ccccc6n2c5c31)C(=O)NC4
Activity [19]: Active

CCOc1c(Br)cc(C2C(C#N)=C(N)Oc3c2ccc2ccccc32)cc1OC (configuration not stated)
IC50 [1]: 36.8 nM

CCCCOc1c(OC)cc(C2C(C#N)=C(N)Oc3c2ccc2ccccc32)cc1OC (configuration not stated)
Activity (Tubulin (Homo sapiens) [3]): Active
Activity (Tubulin (Homo sapiens) [4]): Active
IC50 (HeLa): 98.9 nM
IC50 (HCT-116 [5]): 172 nM
IC50 at 72 h [6]: 78 nM
Activity (Tubulin (Homo sapiens) [8]): Active
IC50 (HT-29): 671 nM
IC50 (MCF7): 103 nM
IC50 (518A2 [10]): 143 nM
Activity [12]: Toxic
Activity [13]: Active
Activity [14]: 87.6%
IC50 [1]: 30 nM
IC50 (KB-V1 [15]): 41.6 nM
IC50 (HCT-116 [16]): 67.4 nM
IC50 (KB-V1 [17]): 84.5 nM
inhibition (Sus scrofa): Active
IC50 [18]: 46.3 nM

COc1cc(C2C(C#N)=C(N)Oc3c2ccc2ccccc32)c(Br)c(OC)c1OC (configuration not stated)
IC50 [1]: 130 nM

COc1ccc(C2C(C#N)=C(N)Oc3c2ccc2ccccc32)cc1[N+](=O)[O-] (configuration not stated)
IC50 [1]: 110 nM

CSc1ccc(C2C(C#N)=C(N)Oc3c2ccc2ccccc32)cc1F (configuration not stated)
IC50 [1]: 240 nM

Source: ChEMBL document CHEMBL5126678, “A New Naphthopyran Derivative Combines c-Myb Inhibition, Microtubule-Targeting Effects, and Antiangiogenic Properties” (ACS Med Chem Lett, 2022)
